Experiments:
H358 lung cancer cells = experiment: [3H]-thymidine incorporation (DNA synthesis) assay in H358 cells; format: cell-based
Experimental: (§1) (A) Structures of 1a, and the acetylated side chain of a lysine residue within the polypeptide chain of a protein targeted by the acetylating enzyme (R1 and R2 are the main chain elements on both sides of the lysyl residue). (B) [^3H]-thymidine incorporation into DNA of H358 cells pulsed for 6 hrs at three different time points after the addition of increasing concentrations of 1a, i.e., at 6-12 hrs (12 hr curve), at 18-24 hours (24 hr curve), or at 42-48 hrs (48 hr curve). Incorporation is represented as a percentage relative to control (untreated) cells. (C) Cell cycle analysis of propidium iodide-stained cells harvested at various times after addition of 50 μM 1a. % of cells in G1, S, and G2 represents the average of two independent profiles. (D) Western analysis of histone H3 lysine 9 acetylation, histone H3 lysine 56 acetylation, histone H3 lysine 9 methylation, and total histone H3, before “c” or at the indicated times after addition of 50 μM 1a. Each lane represents 60 μg cellular protein.
Control cells were left untreated. […] Control cells were left untreated.
Cells were either labeled immediately before treatment (starting DNA synthesis rate), or subjected to the indicated treatments and then pulsed on successive days until day 4. DNA synthesis is represented as the percent of starting DNA synthesis rate. Viability was determined for each treatment condition 24 hours post-start of treatment by the trypan blue exclusion assay, with percentages of viable cells indicated to the right of the graph.
H358 cells (2,000/well) in 96-well plates were treated with 1, 10 or 50 μM of spd-1a, spd-2a, spd-3a, spm3, or spm2 for 12 hours. Triplicate wells of cells were pulsed 6 hours with 0.5 μCi [^3H]-thymidine (NEN, Boston Mass.) post-start of drug treatment, and harvested onto filter paper using a Brandel Harvester and subjected to scintillation counting. Untreated cells were pulsed from 0-6 hrs to establish the initial rate of incorporation.
Cells were plated in 96-well plates (2000 cells per well to insure conditions for exponential growth for untreated cells over the time course of the experiment) and exposed to the following treatments: 1a (50 μM); camptothecin (Sigma, St Louis, Mo. 5 nM, 18 hours); cisplatin (Platinol, obtained through local pharmacies, 2 μM, 1 hour 15 minutes), 5-fluorouracil (5FU, Adrucil™, obtained through local pharmacies, 2 μM, 1 hour 15 minutes), Taxotere (provided by the late Dr. Pierre Potier, 5 nM, 18 hours). UVC treatment (40 J/m^2) using a Stratalinker™, Stratagene, La Jolla, Calif.) was carried using medium lacking phenol red. At 0-6 hr, 18-24 hr (day 1), 42-48 hr […], 66-72 hr (day 3), and 90-96 hr (day 4) post-start of treatment, triplicate wells were incubated with 0.5 μCi [^3H]-thymidine (NEN, Boston Mass.), harvested onto filter paper, and subjected to scintillation counting. Trypan blue exclusion assays for cell membrane integrity were carried out as known in the art.
The present inventors used 96-well viability assays as described in Saadatmandi et al (Cancer Gene Therapy (2002) 9:[…]) to examine the effect of 1a on DNA synthesis in H358 cells, as well as the combined effects of 1a and chemotherapeutic agents. H358 cells were plated in 96-well plates at 3000 cells per well. […]

H358 cells = experiment: Trypan blue exclusion viability assay; format: cell-based
[1] = tested on: histone H3 lysine 9 acetylation in H358 cells; experiment: Western analysis of histone H3 acetylation/methylation in H358 cells; format: cell-based; conditions: 50 μM, 12 hours
Experimental: as §1
Each lane represents 175 μg cell lysate protein.
One 6 cm culture dish of H358 cells per treatment was used. Cells were treated with 50 μM spm-2, spm-3, or spd-3a for 12 hours. Histones were extracted from cells in 0.2M H2SO4 (as described in Furuta, T., et al (2003) J. Biol. Chem. 278: 20303-20312), followed by SDS-PAGE and Western blotting. Blots were probed with anti-acetyl histone H3-lysine 9 (Upstate Biotechnology, Inc.)
Cells were lysed by adding 1 mL of 0.2 M H2SO4. […]
One 10-cm plate of H358 lung cancer cells (about 2×10^6 cells), grown in DMEM+10% Fetal bovine serum as described in reference, were treated for 24 hours with 50 μM 1a inhibitor. […] Treated cells and untreated (control) cells were harvested by lysing in buffer containing 10 mM Hepes pH 7.5, 100 mM NaCl, 300 mM sucrose, 3 mM MgCl2, 1 mM EDTA, 1 mM DTT, 0.5% Triton X-100, 1 mM PMSF, protease inhibitor pellet (Roche) and analyzed on 10% SDS-PAGE gels, followed by Western immunoblot analysis of total histone H3, methylated histone H3 (methylated on lysine 9), and acetylated histone H3 (acetylated on lysine 9). […]

GT41F skin fibroblasts = experiment: 96-well MTS viability assay, GT41F fibroblasts; format: cell-based, human; conditions: spm single agent, 3 days
Experimental: (§2) Cells were plated in 96-well plates at 2000 cells per well and treated with the indicated doses of spd-3a. Cell viability was measured by the MTS assay 3 days later.
(§3) DLD-1 cells or H358 cells were plated in 96-well plates at 2000 cells per well and treated with the indicated doses of (A) spm-3 or (B) spm-2. (C) Cell viability was measured by the MTS assay 3 days later. Similar experiment using GT41 fibroblasts with spm2 or spm 3. Each assay point represents an average of duplicates.

DLD-1 colon cancer cells = experiment: 96-well MTS viability assay, DLD-1; format: cell-based; conditions: single agent, 3 days
Experimental: as §2, §3

SMILES | sensitization to 5-FU (H358 lung cancer cells; 50 μM 1a + 5FU 2 μM) | viability at 50 µM (H358 cells; Homo sapiens, NCI-H358, 18 h, read-out: cell viability, single agent) [%] | cell viability, single agent (H358 cells; human, 24 h) [%] | inhibition of DNA synthesis (H358 lung cancer cells; 1, 10 or 50 μM, 12 hours) | histone H3K9 acetylation (Western) [1] | sensitivity of normal fibroblasts (GT41F skin fibroblasts) | suppression of cancer cell growth and viability (DLD-1 colon cancer cells)
CC(C)(COP(=O)(O)OP(=O)(O)OC[C@H]1O[C@@H](n2cnc3c(N)ncnc32)[C@H](O)[C@@H]1OP(=O)(O)O)[C@@H](O)C(=O)NCCC(=O)NCCSCC(=O)NCCCNCCCCN [1a, spermidine[N1]-CoA] | sensitized | ≥ 96 | ≥ 96 | – | – | – | –
CC(=O)NCCSCC(=O)NCCCNCCCCNCCCN [spm-3] | – | – | – | inhibit DNA synthesis | suppress histone acetylation | sensitivity similar to that of H358 lung cancer cells | effective as single agents

— US10617656B2, “Methods of increasing the cytotoxicity of chemotherapeutic agents with multisubstrate inhibitors of histone, protein-Lys, polyamine acetylation, and polyamine metabolism” (Vanderbilt University, priority 2010, dated 2020)
